Values of other authors as cited in patent US20100202983A1, “SELECTIVELY TARGETED ANTIMICROBIALS FOR THE TREATMENT OF PERIODONTAL DISEASE” (priority 2009, published 2010).

Experiments:
S. mutans [1] = test system: S. mutans
S. mutans [2] = details: cell culture
[3] = test system: Porphyromonas gingivalis and Streptococcus mitis; details: Murakami et al., Infect. Immun. 59:3284 (1991)

Row | Substance | efficacy for reducing the biofilms formed by S. mutans, and other microbial pathogenic microbes (S. mutans [1]) | efficacy for reducing the colony forming units of S. mutans (S. mutans [2]) | other results
1 | 1903 BD2-21: S. mutans-specific targeting peptide linked via linker peptide to an antimicrobial peptide (NIFEYFLEGGGKLFKFLRKHLL; selectively/specifically targeted antimicrobial peptide (STAMP) chimeric polypeptide 1903-BD2.21) | efficacy has been demonstrated | – | –
2 | C16 BD2.21: S. mutans-specific targeting peptide linked via linker peptide to an antimicrobial peptide (TFFRLFNRSFTQALGKGGGKLFKFLRKHLL; selectively/specifically targeted antimicrobial peptide (STAMP) chimeric polypeptide C16-BD2.21) | efficacy has been demonstrated | – | –
3 | C16G2: S. mutans-specific targeting peptide linked via linker peptide to an antimicrobial peptide (TFFRLFNRSFTQALGKGGGKNLRIIRKGIHIIKKY; selectively/specifically targeted antimicrobial peptide (STAMP) chimeric polypeptide C16G2) | efficacy has been demonstrated | – | –
4 | FBRW-15: antimicrobial peptide useful in the present invention (IKQLLHFFQRFGGGRWRWRWF; FBRW-15) | – | efficacy has been demonstrated | –
5 | FBRW-16: antimicrobial peptide useful in the present invention (LKRFLKWFKRFGGGRWRWRWF; FBRW-16) | – | efficacy has been demonstrated | –
6 | FBRW-22: antimicrobial peptide useful in the present invention (RWRWRWFGGGFKKFWKWFRRF; FBRW-22) | – | efficacy has been demonstrated | –
7 | FBRW-24: antimicrobial peptide useful in the present invention (RWRWRWFGGGLKRFLKWFKRF; FBRW-24) | – | efficacy has been demonstrated | –
8 | FBα-20: antimicrobial peptide useful in the present invention (RWRRLLKKLHHLLHGGGFKKFWKWFRRF; FBalpha-20) | – | efficacy has been demonstrated | –
9 | FBα-21: antimicrobial peptide useful in the present invention (RWRRLLKKLHHLLHGGGIKQLLHFFQRF; FBalpha-21) | – | efficacy has been demonstrated | –
10 | Histatin 5: 24-residue peptide from human saliva with antifungal properties (DSHAKRHHGYKRKFHEKHHSHRGY; histatin 5 peptide) | – | – | inhibition of coaggregation between Porphyromonas gingivalis and Streptococcus mitis [3]: inhibits coaggregation
11 | M8-33: S. mutans-specific targeting peptide linked via linker peptide to an antimicrobial peptide (TFFRLFNRSGGGFKKFWKWFRRF; selectively/specifically targeted antimicrobial peptide (STAMP) chimeric polypeptide M8-33) | efficacy has been demonstrated | – | –
12 | M8G2: S. mutans-specific targeting peptide linked via linker peptide to an antimicrobial peptide (TFFRLFNRGGGKNLRIIRKGIHIIKKY; selectively/specifically targeted antimicrobial peptide (STAMP) chimeric polypeptide M8G2) | efficacy has been demonstrated | – | –
